Residues, ends and D or L forms follow the SMILES beside them.
Assays:
[1] = target: T1, Corticotropin-releasing factor receptor 1 (Homo sapiens, UniProt P34998); experiment: Binding affinity of the receptor corticotropin releasing factor receptor with peptidic agonists
T1 sequence (P34998 whole entry): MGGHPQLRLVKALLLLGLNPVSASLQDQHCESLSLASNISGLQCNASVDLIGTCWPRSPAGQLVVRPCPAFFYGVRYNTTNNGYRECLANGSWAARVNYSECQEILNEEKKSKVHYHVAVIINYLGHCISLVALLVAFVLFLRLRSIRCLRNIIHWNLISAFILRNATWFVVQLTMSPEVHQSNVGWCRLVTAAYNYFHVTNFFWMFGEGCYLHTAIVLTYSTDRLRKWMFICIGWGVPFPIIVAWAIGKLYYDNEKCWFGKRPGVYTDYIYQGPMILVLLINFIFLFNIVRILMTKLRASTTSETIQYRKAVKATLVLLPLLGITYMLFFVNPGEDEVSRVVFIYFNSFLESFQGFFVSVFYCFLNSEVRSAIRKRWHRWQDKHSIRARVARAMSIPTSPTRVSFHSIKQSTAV

[2] = target: T1, Corticotropin-releasing factor receptor 1; experiment: Activity of peptidic agonists on corticotropin releasing factor receptor using agonist-stimulated adenylate cyclase assay; type: functional
[3] = target: T2, Corticotropin-releasing factor receptor 2 (Homo sapiens, UniProt Q13324); experiment: Binding affinity of the receptor h-CRF2-alpha with peptidic agonists
T2 sequence (Q13324 whole entry): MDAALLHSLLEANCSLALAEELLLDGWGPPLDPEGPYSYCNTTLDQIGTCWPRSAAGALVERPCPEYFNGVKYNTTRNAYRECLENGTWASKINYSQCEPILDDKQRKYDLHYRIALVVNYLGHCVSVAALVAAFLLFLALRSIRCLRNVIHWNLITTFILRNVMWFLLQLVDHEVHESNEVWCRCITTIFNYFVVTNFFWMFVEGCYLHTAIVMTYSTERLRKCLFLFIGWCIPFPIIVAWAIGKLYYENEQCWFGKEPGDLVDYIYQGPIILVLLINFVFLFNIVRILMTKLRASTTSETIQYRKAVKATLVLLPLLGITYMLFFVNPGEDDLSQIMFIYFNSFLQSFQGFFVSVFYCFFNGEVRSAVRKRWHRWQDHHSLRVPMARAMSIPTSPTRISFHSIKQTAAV

[4] = target: T2, Corticotropin-releasing factor receptor 2; experiment: Activity of peptidic agonists on h-CRF2-alpha receptor using agonist-stimulated adenylate cyclase assay; type: functional
[5] = organism: Rattus norvegicus; experiment: effective concentration used to stimulate the secretion of adenocorticotropic hormone(ACTH) in primary cultures of rat pituitary cells; type: functional, cell-based; conditions: Pituitary gland cell
[6] = Inhibition of ovine CRF stimulated adenylate cyclase assay in CHO-p5 cells; type: functional, cell-based; conditions: Ovis aries
[7] = target: T3, Corticotropin releasing factor receptor (Rattus norvegicus, UniProt P47866+P35353); experiment: (§1) Compound was tested for the binding affinity to rat corticotropin releasing factor receptor; type: protein assay
[8] = target: T3, Corticotropin releasing factor receptor; experiment: Compound was tested for the inhibition of binding of the radioligand, [125 I-Tyr0]-CRF to rat cerebral cortex membrane; type: tissue-based
[9] = target: T1, Corticotropin-releasing factor receptor 1; experiment: Compound was tested for the binding affinity to human corticotropin releasing factor 1 (hCRF1) receptors.
[10] = target: T1, Corticotropin-releasing factor receptor 1; experiment: Effective concentration to stimulate the human corticotropin releasing factor receptor using agonist-stimulated adenylate cyclase assay; type: functional
[11] = organism: Rattus norvegicus; experiment: 50% inhibitory concentration to antagonize Corticotropin releasing factor (CRF) stimulated adenylate cyclase; type: functional
[12] = test system: Rattus norvegicus; experiment: Percent reduction in latency time in the dark compartment at 20 mg/kg was reported; type: functional
[13] = organism: Rattus norvegicus; experiment: Oral activity was evaluated in an rat situational anxiety test; type: functional
[14] = test system: Rattus norvegicus; experiment: Minimum effective dose in rat […] anxiety test when administered perorally; type: functional; conditions: po, read-out: MED
[15] = test system: HEK293; experiment: Inhibition of h- CRF mediated increase in adenylate cyclase activity was evaluated in HEK293 cells; type: functional, cell-based; conditions: Homo sapiens
[16] = target: T1, Corticotropin-releasing factor receptor 1; experiment: Compound was tested for the binding affinity to human corticotropin releasing factor 1 (hCRF1) receptors
[17] = target: T3, Corticotropin releasing factor receptor; experiment: Inhibition of binding of the radioligand, [125 I-Tyr0]-CRF to rat cerebral cortex membrane; type: tissue-based
[18] = target: T3, Corticotropin releasing factor receptor; experiment: as §1; type: protein assay; remark: listed apart in the source

CC[C@H](C)[C@H](NC(=O)[C@H](CC(=O)O)NC(=O)[C@H](CC(C)C)NC(=O)[C@H](CC(C)C)NC(=O)[C@H](CCCCN)NC(=O)[C@H](CCCN=C(N)N)NC(=O)[C@H](CC(N)=O)NC(=O)[C@H](CO)NC(=O)[C@H](Cc1cnc[nH]1)NC(=O)[C@H](C)NC(=O)[C@H](CCC(N)=O)NC(=O)[C@H](CCC(N)=O)NC(=O)[C@H](C)NC(=O)[C@H](CC(C)C)NC(=O)[C@H](CCC(N)=O)NC(=O)[C@H](CC(=O)O)NC(=O)[C@H](C)NC(=O)[C@H](CCCCN)NC(=O)[C@@H](NC(=O)[C@H](CCSC)NC(=O)[C@H](CCC(=O)O)NC(=O)[C@H](CC(C)C)NC(=O)[C@@H](NC(=O)[C@H](CCC(=O)O)NC(=O)[C@H](CCCN=C(N)N)NC(=O)[C@H](CC(C)C)NC(=O)[C@H](CC(C)C)NC(=O)[C@H](Cc1cnc[nH]1)NC(=O)[C@H](Cc1ccccc1)NC(=O)[C@@H](NC(=O)[C@H](CC(C)C)NC(=O)[C@H](CC(=O)O)NC(=O)[C@H](CC(C)C)NC(=O)[C@H](CO)NC(=O)[C@@H](NC(=O)[C@@H]1CCCN1C(=O)[C@@H]1CCCN1C(=O)[C@H](CCC(=O)O)NC(=O)[C@H](CCC(N)=O)NC(=O)[C@@H](N)CO)[C@@H](C)CC)[C@@H](C)O)C(C)C)[C@@H](C)O)C(=O)N[C@@H](C)C(N)=O
Ki [1]: 7.16 nM
EC50 [2]: 9.7 nM
Ki [3]: 86.4 nM
EC50 [4]: 61.9 nM

CC[C@H](C)[C@H](NC(=O)[C@@H](NC(=O)[C@H](CCC(=O)O)NC(=O)[C@H](CCSC)NC(=O)[C@H](CC(C)C)NC(=O)[C@H](CCCCN)NC(=O)[C@H](CCCN=C(N)N)NC(=O)[C@H](CC(N)=O)NC(=O)[C@H](CO)NC(=O)[C@H](Cc1c[nH]cn1)NC(=O)[C@H](C)NC(=O)[C@H](CCC(N)=O)NC(=O)[C@H](CCC(N)=O)NC(=O)[C@H](C)NC(=O)[C@H](CC(C)C)NC(=O)[C@H](CCC(N)=O)NC(=O)[C@H](CCC(=O)O)NC(=O)[C@H](C)NC(=O)[C@H](CCCN=C(N)N)NC(=O)[C@H](C)NC(=O)[C@H](CCSC)NC(=O)[C@H](CCC(=O)O)NC(=O)[C@H](CC(C)C)NC(=O)[C@@H](NC(=O)[C@H](CCC(=O)O)NC(=O)[C@H](CCCN=C(N)N)NC(=O)[C@H](CC(C)C)NC(=O)[C@H](CC(C)C)NC(=O)[C@H](Cc1c[nH]cn1)NC(=O)[C@H](Cc1ccccc1)NC(=O)[C@@H](NC(=O)[C@H](CC(C)C)NC(=O)[C@H](CC(=O)O)NC(=O)[C@H](CC(C)C)NC(=O)[C@H](CO)NC(=O)[C@@H](NC(=O)[C@@H]1CCCN1C(=O)[C@@H]1CCCN1C(=O)[C@H](CCC(=O)O)NC(=O)[C@H](CCC(=O)O)NC(=O)[C@@H](N)CO)[C@@H](C)CC)[C@@H](C)O)C(C)C)[C@@H](C)CC)C(N)=O
EC50 [5]: 0.2 nM

CCCCN(CC)c1cc(C)nc2c(-c3ccc(Cl)cc3Cl)c(C)nn12
IC50 [6]: 357 nM

CCc1nc2c(c(C)nn2-c2ccc(C(C)C)cc2Br)n1Cc1ccccc1
Ki [7]: 4 nM

CCN(c1nc(C)cc(N2CCC=C(c3ccccc3C)C2)n1)c1ccc(C(C)C)cc1SC
IC50 [8]: 10 nM

CCC(CC)n1nnc2c(N3CCc4cc(Cl)cc(Cl)c43)nc(C)cc21
Ki [9]: 1.3 nM

CCCN(CCOC)c1cc(C)nc2c(-c3ccc(OC)c(OC)c3)c(C)nn12
Ki [9]: 13.7 nM

CCN(c1nc(C)cc(N2CC=C(c3cccc(F)c3)CC2)n1)c1ccc(C(C)C)cc1SC
IC50 [8]: 12.7 nM

CCCN(c1nc(-c2ccc(Cl)cc2Cl)c(C)s1)c1cccc2ncccc12
IC50 [8]: 80 nM

CC[C@H](C)[C@H](NC(=O)[C@@H](NC(=O)[C@H](CC(=O)O)NC(=O)[C@H](CC(C)C)NC(=O)[C@H](CC(C)C)NC(=O)[C@H](CC(C)C)NC(=O)[C@H](CCCNC(=N)N)NC(=O)[C@H](CC(N)=O)NC(=O)[C@H](CC(N)=O)NC(=O)[C@H](C)NC(=O)[C@H](C)NC(=O)[C@H](CCC(N)=O)NC(=O)[C@H](CCC(N)=O)NC(=O)[C@H](CCCCN)NC(=O)[C@H](CCC(=O)O)NC(=O)[C@H](CCCCN)NC(=O)[C@H](CCC(=O)O)NC(=O)[C@H](CCC(N)=O)NC(=O)[C@H](CCCCN)NC(=O)[C@H](CCC(=O)O)NC(=O)[C@@H](NC(=O)[C@H](CCC(=O)O)NC(=O)[C@@H](NC(=O)[C@H](CCSC)NC(=O)[C@H](CCCCN)NC(=O)[C@H](CCCNC(=N)N)NC(=O)[C@H](CC(C)C)NC(=O)[C@H](CC(C)C)NC(=O)[C@H](Cc1c[nH]cn1)NC(=O)[C@H](N)Cc1ccccc1)[C@@H](C)CC)[C@@H](C)CC)[C@@H](C)O)C(N)=O
EC50 [10]: 3760 nM

CC[C@H](C)[C@H](NC(=O)[C@@H](NC(=O)[C@H](CC(=O)O)NC(=O)[C@H](CC(C)C)NC(=O)[C@H](CC(C)C)NC(=O)[C@H](CC(C)C)NC(=O)[C@H](CCCN=C(N)N)NC(=O)[C@H](CC(N)=O)NC(=O)[C@H](CC(N)=O)NC(=O)[C@H](C)NC(=O)[C@H](C)NC(=O)[C@H](CCC(N)=O)NC(=O)[C@H](CCC(N)=O)NC(=O)[C@H](CCCCN)NC(=O)[C@H](CCC(=O)O)NC(=O)[C@H](CCCCN)NC(=O)[C@H](CCC(=O)O)NC(=O)[C@H](CCC(N)=O)NC(=O)[C@H](CCCCN)NC(=O)[C@H](CCC(=O)O)NC(=O)[C@@H](NC(=O)[C@H](CCC(=O)O)NC(=O)[C@@H](NC(=O)[C@H](CCSC)NC(=O)[C@H](CCCCN)NC(=O)[C@H](CCCN=C(N)N)NC(=O)[C@H](CC(C)C)NC(=O)[C@H](CC(C)C)NC(=O)[C@H](CCC(=O)O)NC(=O)[C@H](CC(C)C)NC(=O)[C@H](CO)NC(=O)[C@H](CC(C)C)NC(=O)[C@H](CC(=O)O)NC(=O)[C@@H](NC(=O)[C@H](CO)NC(=O)[C@@H](NC(=O)[C@@H]1CCCN1C(=O)[C@@H]1CCCN1C(=O)CNC(=O)[C@@H](N)CCC(N)=O)[C@@H](C)CC)[C@@H](C)CC)[C@@H](C)CC)[C@@H](C)CC)[C@@H](C)O)C(N)=O
Ki [1]: 7.3 nM
EC50 [2]: 3.4 nM
Ki [3]: 2.73 nM
EC50 [4]: 1.4 nM

Cc1cc(C)nc(N(C)c2ccccc2Br)n1
IC50 [11]: 20000 nM

CCC(CC)Nc1cc(C)nc2c(-c3ccc(OC)cc3C)c(C)nn12
Reduction [12]: 57%
ED50 [13]: 1 mg/kg
minimal effective dose [14]: 1 mg/kg
IC50 [15]: 10000 nM
Ki [16]: 1 nM

Cc1c(SSc2c(C)n(C)n(-c3ccc4ccccc4c3)c2=O)c(=O)n(-c2ccc3ccccc3c2)n1C
IC50 [11]: 1000 nM
IC50 [17]: 3300 nM

CCN(c1nc(C)cc(N2CC=C(c3cccc(F)c3)CC2)n1)c1ccc(C(C)C)cc1Br
IC50 [8]: 22.1 nM

CCCCC(CC)n1c(C)nc2c(-c3ccc(Cl)cc3Cl)ncnc21 (stereo not drawn)
Ki [7]: 8.8 nM

CC(=O)Sc1c(C)n(C)n(-c2ccccc2)c1=O
IC50 [11]: 2900 nM
IC50 [17]: 13700 nM

CC[C@H](C)[C@H](NC(=O)[C@H](CO)NC(=O)[C@H](CC(C)C)NC(=O)[C@H](CO)NC(=O)[C@@H]1CCCN1C(=O)[C@H](CC(N)=O)NC(=O)[C@@H](N)CC(=O)O)C(=O)N[C@@H](CC(=O)O)C(=O)N[C@@H](CC(C)C)C(=O)N[C@H](C(=O)N[C@@H](Cc1ccccc1)C(=O)N[C@@H](Cc1cnc[nH]1)C(=O)N[C@@H](CC(C)C)C(=O)N[C@@H](CC(C)C)C(=O)N[C@@H](CCCNC(=N)N)C(=O)N[C@H](C(=O)N[C@@H](CC(C)C)C(=O)N[C@@H](CC(C)C)C(=O)N[C@@H](CCC(=O)O)C(=O)N[C@@H](CC(C)C)C(=O)N[C@@H](C)C(=O)N[C@@H](CCCNC(=N)N)C(=O)N[C@H](C(=O)N[C@@H](CCC(N)=O)C(=O)N[C@@H](CO)C(=O)N[C@@H](CCC(N)=O)C(=O)N[C@@H](CCCNC(=N)N)C(=O)N[C@@H](CCC(=O)O)C(=O)N[C@@H](CCCNC(=N)N)C(=O)N[C@@H](C)C(=O)N[C@@H](CCC(=O)O)C(=O)N[C@@H](CCC(N)=O)C(=O)N[C@@H](CC(N)=O)C(=O)N[C@@H](CCCNC(=N)N)C(=O)N[C@H](C(=O)N[C@H](C(=O)N[C@@H](Cc1ccccc1)C(=O)N[C@@H](CC(=O)O)C(=O)N[C@@H](CO)C(=O)N[C@H](C(N)=O)C(C)C)[C@@H](C)CC)[C@@H](C)CC)[C@@H](C)O)[C@@H](C)O)[C@@H](C)O (H-DNPSLSIDLTFHLLRTLLELARTQSQRERAEQNRIIFDSV-NH2)
Ki [1]: 3.76 nM
EC50 [2]: 0.22 nM
Ki [3]: 3.6 nM
EC50 [4]: 0.32 nM

CCCCN(CC)c1nc(C)nc2c1c(C)c(C)n2-c1c(C)cc(C)cc1C [ANTALARMIN]
Ki [18]: 1 nM

H-NDDPPISIDLTFHLLRNMIEMARIENEREQAGLNRKYLDEV-NH2
Ki [1]: 1.07 nM
EC50 [2]: 6.3 nM
Ki [3]: 1.26 nM
EC50 [4]: 1.5 nM

Reference: ChEMBL document CHEMBL1132922, “Corticotropin releasing factor (CRF) receptor modulators: progress and opportunities for new therapeutic agents” (J Med Chem, 2000)
